Results from patent US6069156A, “Indole derivatives as cGMP-PDE inhibitors” (Fujisawa Pharmaceutical Co., Ltd., priority 1995, dated 2000).
Counter-ions that a name gives are not always drawn. Like-named read-outs stand apart in the source and are kept apart here.

Legend:
[1] = system: Vascular smooth muscle cells (vSMCs); assay: vSMC Proliferation ([3H]-thymidine, PDGF-stimulated); assay type: cell-based, male Wistar rats; details: Rattus norvegicus, PDGF 10 ng/ml stimulation
Procedure: Vascular smooth muscle cells (vSMCs) were prepared from explants of the thoracic aorta of 10 week old male Wistar rats by a modification of the method of Ross (J. Cell Biol., 50: 172, 1971). They were cultured in DMEM containing 10% fetal calf serum, 1% penicillin G and 1% streptomycin at 37° C. in a 95% air, 5% CO2 humidified atmosphere. vSMCs were seeded in 24 well plates and cultured in the presence of 10% fetal calf serum for 3 days. Cell growth then was arrested by transfer to serum free DMEA. After 24 hours, each test compound or vehicle was added to medium for 1 hour, and then cells were stimulated by PDGF (10 ng/ml). After 24 hours of additional incubation, [^3 H]-thymidine (1 μCi/ml) was added during the final 4 hours of incubation time, and trichloracetic acid insoluble radioactivity was assayed by liquid scintillation counting.

cGMP-PDE = target: T1, cGMP-PDE (Homo sapiens, UniProt O76074); assay: cGMP-phosphodiesterase (PDE) Assay (human platelets); assay type: biochemical
T1 construct: cGMP-PDE was separated from other isozymes in human platelets; from tissue; host or cells: human platelets
Procedure: cGMP-phosphodiesterase (PDE) Assay
cGMP-PDE was separated from other isozymes in human platelets by a modification of the method of Thompson et. al. (Cyclic Nucleotide Phosphodiesterase (PDE), in Methods of Enzymatic analysis, Vol 4, p127-234, 1984). In enzyme inhibition assays, the test compounds were dissolved in 10% DMSO and then diluted with assay buffer (50 mM Tris-HCl, pH 8.0, 0.1 mM dithiothreitol, 2 mM EGTA and 10 u/ml snake venom), at final concentrations ranging from 10^-10 to 10^-6 M. Assays were performed at 0.1 μM substrate ([^3 H]-cGMP) concentration, at 30° C. for 10 minutes using enzyme dilutions which gave 10-20% hydrolysis of substrate. Each assay was initiated by addition of substrate and terminated by addition of anion exchange resin (Dowex 1-X8, 25 μg/mg) followed by centrifugation for 10 minutes (3000 rpm, at 4° C.). Radioactivity of supernatant (^3 H-GMP) was assayed by liquid scintillation counting.

[2] = 0.1 μM [3H]-cGMP, 30° C., 10 minutes, read-out: IC50

SMILES	IC50 [1]	IC50 (cGMP-PDE)	IC50 (cGMP-PDE; [2])
CCC(=O)c1c(CC)n(Cc2ccccc2Cl)c2cc(C(N)=O)ccc12 [Example 15, 1-(2-Chlorobenzyl) -2-ethyl-3-propionylindole-6-carboxamide]	< 100 nM	< 100 nM	
CCCc1c(C(=O)C(C)C)c2ccc(C(N)=O)cc2n1Cc1ccccn1 [Example 39, 3-isobutyryl-2-propyl-1-(2-pyridylmethyl)indole-6-carboxamide hydrochloride]		< 100 nM	
CCCc1c(C#N)c2ccc(C(N)=O)cc2n1Cc1ccccc1Cl [37-(11), 1-(2-Chlorobenzyl)-3-cyano-2-propylindole-6-carboxamide]			< 100 nM
CCCc1c(C(=O)CN2CCOCC2)c2ccc(C(N)=O)cc2n1Cc1ccccc1Cl [75-(10), 1-(2-Chlorobenzyl)-3-morpholinoacetyl-2-propylindole-6-carboxamide]		< 100 nM	
CCCc1c(C(=O)C(C)C)c2ccc(NC=O)cc2n1Cc1ccccc1Cl [Example 58, 1-(2-chlorobenzyl)-6-formamido-3-isobutyryl-2-propylindole]		< 100 nM	
CCCc1c(C(=O)C(C)C)c2ccc(C(N)=O)cc2n1Cc1ccccc1C#N [37-(6), 1-(2-Cyanobenzyl)-3-isobutyryl-2-propylindole-6-carboxamide]		< 100 nM	
CCCc1c(C(C)=NO)c2ccc(C(N)=O)cc2n1Cc1ccccc1Cl [Example 70, 1-(2-chlorobenzyl)-3-(1-hydroxyiminoethyl)-2-propylindole-6-carboxamide]			< 100 nM
N#Cc1ccc2c3c(n(Cc4ccccc4Cl)c2c1)C(=O)CCC3 [67-(2), 9-(2-Chlorobenzyl)-8-oxo-5,6,7,8-tetrahydrocarbazole-2-carbonitrile]	< 100 nM		< 100 nM
CC=Cc1c(C(=O)C(C)C)c2ccc(C(N)=O)cc2n1Cc1ccccc1Cl [75-(29), 1-(2-Chlorobenzyl)-3-isobutyryl-2-(1-propenyl)indole-6-carboxamide]	< 100 nM	< 100 nM	
NC(=O)c1ccc2c(C(=O)O)cn(Cc3ccccc3Cl)c2c1 [Example 63, 6-carbamoyl-1-(2-chlorobenzyl)indole-3-carboxylic acid]		< 100 nM	
CCC(O)c1c(C(=O)C(C)C)c2ccc(C(N)=O)cc2n1Cc1ccccc1Cl (stereo not shown) [75-(30), 1-(2-Chlorobenzyl)-2-(1-hydroxypropyl)-3-isobutyrylindole-6-carboxamide]	< 100 nM	< 100 nM	
CCCc1c(C(=O)C(C)C)c2ccc(C(N)=O)cc2n1Cc1ccc(Cl)cc1 [Example 26, 1-(4-chlorobenzyl)-3-isobutyryl-2-propylindole-6-carboxamide]		< 100 nM	
CCCc1c(C(N)=O)c2ccc(C(N)=O)cc2n1Cc1ccccc1Cl [75-(15), 1-(2-Chlorobenzyl)-2-propylindole-3,6-dicarboxamide]		< 100 nM	
CCCc1c(C(=O)C(C)C)c2ccc(C(N)=O)cc2n1Cc1ccc2sccc2c1 [75-(23), 1-(Benzo[b]thiophen-5-ylmethyl)-3-isobutyryl-2-propylindole-6-carboxamide]		< 100 nM	
CC(=O)c1c(CC(C)C)c2ccc(C(N)=O)cc2n1Cc1ccccc1Cl [Example 18, 2-Acetyl-1-(2-chlorobenzyl)-3-isobutylindole-6-carboxamide]			< 100 nM
CCCc1c(C(=O)C(C)C)c2ccc(C(N)=O)cc2n1Cc1ccccc1I [37-(3), 1-(2-Iodobenzyl)-3-isobutyryl-2-propylindole-6-carboxamide]		< 100 nM	
CCCc1c(C(=O)CC)c2ccc(C(N)=O)cc2n1Cc1ccccc1Cl [Example 9, 1-(2-Chlorobenzyl)-3-propionyl-2-propylindole-6-carboxamide]	< 100 nM	< 100 nM	
CCCc1c(C(=O)C(C)C)c2ccc(C(N)=O)cc2n1Cc1ccc(Cl)s1 [27-(5), 1-[(5-Chlorothien-2-yl)methyl]-3-isobutyryl-2-propylindole-6-carboxamide]	< 100 nM	< 100 nM	
CCCc1c(C(=O)C(C)C)c2ccc(C(=O)OC)cc2n1Cc1ccccc1Cl [Example 4, Methyl 1-(2-chlorobenzyl)-3-isobutyryl-2-propylindole-6-carboxylate]		< 100 nM	

SMILES	IC50 [1]	IC50 (cGMP-PDE)	IC50 (cGMP-PDE; [2])
COCc1c(C(=O)C(C)C)c2ccc(C(N)=O)cc2n1Cc1ccccc1Cl [37-(14), 1-(2-Chlorobenzyl)-3-isobutyryl-2-methoxymethylindole-6-carboxamide]	< 100 nM	< 100 nM	
CCCc1c(C(=O)C=C(C)C)c2ccc(C(N)=O)cc2n1Cc1ccccc1Cl [73-(40), 1-(2-Chlorobenzyl)-3-(3-methyl-2-butenoyl)-2-propylindole-6-carboxamide]		< 100 nM	
CCCc1c(C(=O)C(C)C)c2ccc(C(=O)NOC)cc2n1Cc1ccccc1Cl [24-(1), 1-(2-Chlorobenzyl)-3-isobutyryl-O-methyl-2-propylindole-6-carbohydroxamic acid]	< 100 nM	< 100 nM	
CCc1c(C(O)C(C)C)c2ccc(C(N)=O)cc2n1Cc1ccccc1Cl (stereo not shown) [Example 69, 1-(2-Chlorobenzyl)-2-ethyl-3-(1-hydroxy-2-methylpropyl)indole-6-carboxamide]			< 100 nM
CCCc1c(C(=O)C(C)C)c2ccc(C(N)=O)cc2n1Cc1ccc2ccccc2c1 [75-(27), 3-Isobutyryl-2-propyl-1-(2-naphthylmethyl)indole-6-carboxamide]		< 100 nM	
CCCc1c(C(=O)C(C)C)c2cc(C(N)=O)ccc2n1Cc1ccccc1Cl [75-(4), 1-(2-Chlorobenzyl)-3-isobutyryl-2-propylindole-5-carboxamide]		< 100 nM	
CCCc1c(C=O)c2ccc(C(=O)NS(=O)(=O)c3ccccc3)cc2n1Cc1ccccc1Cl [22-(6), 1-(2-Chlorobenzyl)-3-formyl-N-phenylsulfonyl-2-propylindole-6-carboxamide]	< 100 nM	< 100 nM	
CCCc1c(C(=O)CO)c2ccc(C(N)=O)cc2n1Cc1ccccc1Cl [Example 60, 1-(2-chlorobenzyl)-3-hydroxyacetyl-2-propylindole-6-carboxamide]	< 100 nM	< 100 nM	
CCCc1c(C(=O)Cc2ccccc2)c2ccc(C(N)=O)cc2n1Cc1ccccc1Cl [38-(2), 1-(2-Chlorobenzyl)-3-phenylacetyl-2-propylindole-6-carboxamide]	< 100 nM	< 100 nM	
CCCc1c(C(=O)C(C)C)c2ccc(C(=O)NO)cc2n1Cc1ccccc1Cl [Example 23, 1-(2-chlorobenzyl)-3-isobutyryl-2-propylindole-6-carbohydroxamic acid]	< 100 nM	< 100 nM	
CCCc1c(C(=O)C(C)C)c2ccc(C(N)=O)cc2n1Cc1cccc(Cl)c1 [27-(2), 1-(3-Chlorobenzyl)-3-isobutyryl-2-propylindole-6-carboxamide]		< 100 nM	
CCc1c(CC)n(Cc2ccccc2Cl)c2cc(C(N)=O)ccc12 [37-(17), 1-(2-Chlorobenzyl)-2,3-diethylindole-6-carboxamide]			< 100 nM
CC(=O)C=Cc1cn(Cc2ccccc2Cl)c2cc(C(N)=O)ccc12 [75-(38), 1-(2-Chlorobenzyl)-3-(3-oxo-1-butenyl)indole-6-carboxamide]			< 100 nM
NC(=O)c1ccc2c3c(n(Cc4ccccc4Cl)c2c1)C(=O)CC3 [75-(39), 4-(2-Chlorobenzyl)-3-oxo-1,2,3,4-tetrahydrocyclopent[b]indole-6-carboxamide]			< 100 nM
Cc1c(C(=O)C(C)C)c2ccc(C(N)=O)cc2n1Cc1c(Cl)sc2ccccc12 [75-(21), 1-(2-Chlorobenzo[b]thiophen-3-ylmethyl)-3-isobutyryl-2-methylindole-6-carboxamide]		< 100 nM	
CCC(=O)c1c(CC)c2ccc(C(N)=O)cc2n1Cc1ccccc1Cl [Example 21, 1-(2-Chlorobenzyl)-3-ethyl-2-propionylindole-6-carboxamide]			< 100 nM
CCCc1c(C(=O)C(C)C)c2ccc(C(N)=O)cc2n1Cc1ccccc1C(=O)OC [25-(2), 3-Isobutyryl-(2-methoxycarbonylbenzyl)-2-propylindole-6-carboxamide]		< 100 nM	
CCc1c(Cl)n(Cc2ccccc2Cl)c2cc(C(N)=O)ccc12 [75-(35), 2-Chloro-1-(2-chlorobenzyl)-3-ethylindole-6-carboxamide]			< 100 nM
